Results reported in the supplement of paper PMC10331698.
± gives the standard deviation of the averaged measurements.

Experiments:
Experiment in all cases: level (log10 ratio to DMSO vehicle control); higher = higher biomarker level / cell amount than vehicle control
Settings in all cases: in DMSO
Hexafluoroglutaric acid = compound: O=C(O)C(F)(F)C(F)(F)C(F)(F)C(=O)O [Hexafluoroglutaric acid]
Description: (§1)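 BioMAP Diversity Plus panel of 12 human primary cell co-culture systems (3C, 4H, LPS, SAg, BT, BF4T, BE3C, CASM3C, HDF3CGF, KF3CT, MyoF, Mphg). Compounds were added 1 h before stimulation and left for 24 h (MyoF 48 h; BT 72 h for soluble read-outs or 6 d for IgG). Biomarkers were read by ELISA, cytotoxicity by SRB, PBMC viability and proliferation by Alamar Blue. Each well value was divided by the mean of 8 DMSO control wells on the same plate and log10 transformed; duplicate blinded samples were tested at 4 concentrations.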

[1] = compound: O=C(O)C(F)(F)C(F)(F)C(F)(F)C(F)(F)C(F)(F)C(F)(F)C(F)(F)C(F)(F)C(F)(F)C(F)(F)C(F)(F)C(F)(F)F [Perfluorotridecanoic acid]
Description: as §1

[2] = compound: O=C(O)CCC(F)(F)C(F)(F)C(F)(F)F [3:3 Fluorotelomer carboxylic acid]
Description: as §1

[3] = compound: O=P(O)(O)CCC(F)(F)C(F)(F)C(F)(F)C(F)(F)C(F)(F)C(F)(F)C(F)(F)C(F)(F)F [((Perfluorooctyl)ethyl)phosphonic acid]
Description: as §1

[4] = compound: O=S(=O)(O)C(F)(F)C(F)(F)C(F)(F)C(F)(F)C(F)(F)C(F)(F)C(F)(F)C(F)(F)F [Potassium perfluorooctanesulfonate]
Description: as §1

[5] = compound: OCC(F)(F)C(F)(F)C(F)(F)C(F)(F)C(F)(F)C(F)F [1H,1H,7H-Dodecafluoro-1-heptanol]
Description: as §1

Test System	level (log10) (Hexafluoroglutaric acid; 6700 nM)	level (log10) (Hexafluoroglutaric acid; 20000 nM)	level (log10) (Hexafluoroglutaric acid; 60000 nM)	level (log10) ([1]; 1500 nM)	level (log10) ([1]; 4400 nM)	level (log10) ([1]; 13000 nM)	level (log10) ([1]; 40000 nM)	level (log10) ([2]; 6700 nM)	level (log10) ([2]; 20000 nM)	level (log10) ([2]; 60000 nM)	level (log10) ([3]; 6700 nM)	level (log10) ([3]; 20000 nM)	level (log10) ([3]; 60000 nM)	level (log10) ([4]; 6700 nM)	level (log10) ([4]; 20000 nM)	level (log10) ([4]; 60000 nM)	level (log10) ([5]; 6700 nM)	level (log10) ([5]; 20000 nM)	level (log10) ([5]; 60000 nM)
lMphg:CD40	-0.0015 ± 0.012	-0.013 ± 0.0014	-0.066 ± 0.061	-0.0245 ± 0.021	-0.0355 ± 0.0064	-0.051 ± 0.0071	-0.2 ± 0.057	-0.0195 ± 0.064	-0.028 ± 0.067	0.0065 ± 0.018	-0.015 ± 0.017	-0.065 ± 0.017	-0.037 ± 0.021	-0.0245 ± 0.0035	-0.0125 ± 0.0092	0.002 ± 0.017	-0.047 ± 0.082	-0.0425 ± 0.047	-0.061 ± 0.071
lMphg:SRB	0.0035 ± 0.00071	0.003 ± 0.0085	-0.0045 ± 0.0035	-0.009 ± 0.0085	-0.0135 ± 0.0035	0.002 ± 0.0057	-0.0085 ± 0.00071	-0.0305 ± 0.026	-0.0105 ± 0.021	-0.013 ± 0.0042	0 ± 0.0071	-0.0105 ± 0.0078	-0.044 ± 0.0085	-0.0065 ± 0.015	-0.01 ± 0.0071	-0.015 ± 0.011	-0.018 ± 0.028	0.0015 ± 0.005	-0.0025 ± 0.00071
HDF3CGF:CD106/VCAM-1	-0.045 ± 0.0071	-0.0195 ± 0.071	-0.05 ± 0.12	-0.0785 ± 0.0021	-0.207 ± 0.14	-0.152 ± 0.026	-0.291 ± 0.04	-0.0055 ± 0.00071	0.02 ± 0.014	-0.009 ± 0.0085	0.098 ± 0.0028	-0.006 ± 0.0085	-0.145 ± 0.012	-0.032 ± 0.027	-0.0925 ± 0.018	-0.281 ± 0.026	0.014 ± 0.0014	0.011 ± 0.0085	-0.0045 ± 0.00071
HDF3CGF:SRB	-0.03 ± 0.083	-0.0095 ± 0.097	0.0245 ± 0.12	-0.0195 ± 0.035	-0.007 ± 0.021	0.063 ± 0.054	0.067 ± 0.075	0.029 ± 0.061	0.0105 ± 0.0078	0.011 ± 0.05	0.0285 ± 0.021	-0.0095 ± 0.033	-0.011 ± 0.033	-0.033 ± 0.052	-0.005 ± 0.052	-0.0695 ± 0.053	-0.0345 ± 0.033	-0.007 ± 0.05	-0.0055 ± 0.057
KF3CT:TIMP-2	-0.026 ± 0.014	-0.028 ± 0.0042	-0.013 ± 0.011	0.0125 ± 0.016	0.028 ± 0.013	0.0165 ± 0.022	0.0295 ± 0.015	-0.002 ± 0.021	-0.006 ± 0.0099	-0.0025 ± 0.016	0.0015 ± 0.0021	0.013 ± 0.018	-0.0345 ± 0.005	-0.01 ± 0.013	0.002 ± 0.02	0.0145 ± 0.0078	0.0015 ± 0.005	0.0015 ± 0.0021	0.0015 ± 0.0064
lMphg:CCL2/MCP-1	-0.046 ± 0.052	-0.0305 ± 0.037	-0.0235 ± 0.011	-0.0115 ± 0.018	0.001 ± 0.017	-0.004 ± 0.023	0.0275 ± 0.028	-0.012 ± 0.02	-0.01 ± 0.018	0.017 ± 0.02	-0.0325 ± 0.0092	-0.059 ± 0.024	-0.039 ± 0.04	-0.0275 ± 0.018	-0.013 ± 0.047	-0.0155 ± 0.026	-0.011 ± 0.014	-0.009 ± 0.024	0.0115 ± 0.035
MyoF:alpha-SM Actin	-0.008 ± 0.044	-0.0065 ± 0.029	0.033 ± 0.017	0.038 ± 0.067	0.041 ± 0.11	0.023 ± 0.086	0.0055 ± 0.09	-0.011 ± 0.045	0.002 ± 0.023	-0.0055 ± 0.013	0.0005 ± 0.046	-0.001 ± 0.038	0.004 ± 0.031	-0.0215 ± 0.079	-0.027 ± 0.075	-0.0175 ± 0.066	-0.012 ± 0.0014	0.0015 ± 0.005	-0.0115 ± 0.011
CASM3C:CCL2/MCP-1	-0.0115 ± 0.033	-0.024 ± 0.025	0.0205 ± 0.039	-0.0135 ± 0.0021	-0.043 ± 0.033	-0.04 ± 0.033	0.0315 ± 0.033	-0.011 ± 0.021	-0.015 ± 0.0028	-0.0135 ± 0.022	-0.007 ± 0.0071	-0.0085 ± 0.013	0.012 ± 0.058	0.001 ± 0.024	0.01 ± 0.0057	0.0405 ± 0.021	-0.0065 ± 0.013	-0.017 ± 0.02	-0.008 ± 0.033
lMphg:SRB-Mphg	-0.0075 ± 0.019	-0.0055 ± 0.005	0.0075 ± 0.022	0.003 ± 0.023	0.004 ± 0.0071	-0.0155 ± 0.022	0.0125 ± 0.019	-0.019 ± 0.13	-0.047 ± 0.1	-0.048 ± 0.12	0.0005 ± 0.015	-0.0055 ± 0.00071	-0.0515 ± 0.022	0.0005 ± 0.005	0.0005 ± 0.011	0.0115 ± 0.005	-0.028 ± 0.095	-0.046 ± 0.0085	0.0615 ± 0.052
BE3C:MMP-1	-0.011 ± 0.0099	-0.023 ± 0.016	0.007 ± 0.058	-0.014 ± 0.035	0.0385 ± 0.05	0.0445 ± 0.043	0.0615 ± 0.028	-0.006 ± 0.037	-0.0235 ± 0.011	0.0125 ± 0.044	0.0705 ± 0.011	0.111 ± 0.018	0.125 ± 0.061	0.182 ± 0.038	0.157 ± 0.021	0.198 ± 0.012	0.0045 ± 0.022	0 ± 0.025	0.029 ± 0.0057
HDF3CGF:CXCL9/MIG	-0.013 ± 0.014	-0.025 ± 0.011	-0.005 ± 0.013	-0.04 ± 0.03	-0.136 ± 0.12	-0.119 ± 0.043	-0.138 ± 0.073	-0.0115 ± 0.018	-0.005 ± 0.0057	0.0295 ± 0.025	0.102 ± 0.017	0.0505 ± 0.018	-0.0155 ± 0.061	-0.024 ± 0.024	-0.017 ± 0.02	-0.116 ± 0.04	0.0015 ± 0.013	-0.022 ± 0.038	0.011 ± 0.011
lMphg:M-CSF	-0.028 ± 0.014	-0.017 ± 0.0042	-0.0175 ± 0.019	-0.005 ± 0.0057	-0.006 ± 0.016	0.002 ± 0.0099	-0.011 ± 0.0099	-0.021 ± 0.024	-0.008 ± 0.0085	-0.0115 ± 0.0021	-0.0235 ± 0.0064	-0.039 ± 0.0057	-0.0405 ± 0.0078	-0.0005 ± 0.005	-0.004 ± 0.0057	0.035 ± 0.016	-0.0115 ± 0.005	-0.0035 ± 0.0078	0.0085 ± 0.044
MyoF:bFGF	0.01 ± 0.014	0.0105 ± 0.013	0.017 ± 0.0014	0.005 ± 0.04	0.017 ± 0.028	0.0045 ± 0.04	0.015 ± 0.0085	0.0025 ± 0.0021	0.0025 ± 0.0092	0.0085 ± 0.0092	-0.0245 ± 0.018	-0.024 ± 0.018	-0.0585 ± 0.037	-0.0105 ± 0.025	-0.0195 ± 0.023	-0.019 ± 0.028	0.0085 ± 0.0064	0.0065 ± 0.015	0.0065 ± 0.013
HDF3CGF:CXCL8/IL-8	-0.005 ± 0.013	-0.0005 ± 0.0064	-0.0015 ± 0.0035	0.007	0.004 ± 0.0014	0.012 ± 0.0014	0.0165 ± 0.015	-0.006 ± 0.016	-0.002 ± 0.0099	-0.004 ± 0.017	-0.0065 ± 0.022	-0.005 ± 0.0057	-0.0485 ± 0.011	-0.007 ± 0.0085	-0.0065 ± 0.0035	0.004 ± 0.013	0.0045 ± 0.016	0.0035 ± 0.019	0.0055 ± 0.0035
KF3CT:CXCL8/IL-8	-0.0115 ± 0.025	-0.006 ± 0.0057	-0.0135 ± 0.0021	-0.0035 ± 0.04	-0.009 ± 0.037	-0.006 ± 0.033	-0.0315 ± 0.06	0.0005 ± 0.022	-0.0035 ± 0.0092	-0.0005 ± 0.0064	0.022 ± 0.0014	0.0245 ± 0.0078	0.032 ± 0.0028	-0.006 ± 0.017	-0.0045 ± 0.0092	-0.0185 ± 0.015	0.017 ± 0.0028	0.01 ± 0.025	0.0165 ± 0.016
